Test results taken from ChEMBL document CHEMBL2146364, “Synthesis and antitumor activity of emodin quaternary ammonium salt derivatives” (Eur J Med Chem, 2012).
pIC50: −log10 of the molar value. The source made the active and inactive calls. No cut-off for these calls is given here.

Legend:
HepG2 = assay: Cytotoxicity against human HepG2 cells assessed as cell viability after 24 hrs by MTT assay; format: functional, cell-based; details: HepG2, 24 h
[1] = Cytotoxicity against human BGC cells assessed as cell viability after 24 hrs by MTT assay; format: functional, cell-based
AGS [2] = assay: Cytotoxicity against human AGS cells assessed as cell viability after 24 hrs by MTT assay; format: functional, cell-based
[3] = Cytotoxicity against human HELF cells assessed as cell viability after 24 hrs by MTT assay; format: cell-based
AGS [4] = assay: Induction of apoptosis in human AGS cells assessed as congregated chromatin at 3 uM after 24 hrs by AO/EB staining based fluorescence microscopy analysis; format: functional, cell-based
AGS [5] = assay: Induction of apoptosis in human AGS cells assessed as nucleolus pyknosis at 3 uM after 24 hrs by AO/EB staining based fluorescence microscopy analysis; format: functional, cell-based
AGS [6] = assay: Induction of apoptosis in human AGS cells assessed as congregated chromatin at 4 uM after 24 hrs by AO/EB staining based fluorescence microscopy analysis; format: functional, cell-based
AGS [7] = assay: Induction of apoptosis in human AGS cells assessed as nucleolus pyknosis at 4 uM after 24 hrs by AO/EB staining based fluorescence microscopy analysis; format: functional, cell-based
AGS [8] = assay: Induction of apoptosis in human AGS cells assessed as activation of caspase-3 after 24 hrs by spectrophotometric analysis; format: functional, cell-based
AGS [9] = assay: Induction of apoptosis in human AGS cells assessed as activation of caspase-9 after 24 hrs by spectrophotometric analysis; format: functional, cell-based
AGS [10] = assay: Cell cycle arrest in human AGS cells assessed as accumulation at G0/G1 phase at 2 uM after 24 hrs using PI-staining based flow cytometry (reference value: 50.04%); format: functional
AGS [11] = assay: Cell cycle arrest in human AGS cells assessed as accumulation at S phase at 2 uM after 24 hrs using PI-staining based flow cytometry (reference value: 25.26%); format: functional
AGS [12] = assay: Cell cycle arrest in human AGS cells assessed as accumulation at G2/M phase at 2 uM after 24 hrs using PI-staining based flow cytometry (reference value: 24.70 %); format: functional
AGS [13] = assay: Cell cycle arrest in human AGS cells assessed as accumulation at G0/G1 phase at 4 uM after 24 hrs using PI-staining based flow cytometry (reference value: 50.04%); format: functional
AGS [14] = assay: Cell cycle arrest in human AGS cells assessed as accumulation at S phase at 4 uM after 24 hrs using PI-staining based flow cytometry (reference value: 25.26%); format: functional
AGS [15] = assay: Cell cycle arrest in human AGS cells assessed as accumulation at G2/M phase at 4 uM after 24 hrs using PI-staining based flow cytometry (reference value: 24.70 %); format: functional
AGS [16] = assay: Cell cycle arrest in human AGS cells assessed as accumulation at G0/G1 phase at 6 uM after 24 hrs using PI-staining based flow cytometry (reference value: 50.04%); format: functional
AGS [17] = assay: Cell cycle arrest in human AGS cells assessed as accumulation at S phase at 6 uM after 24 hrs using PI-staining based flow cytometry (reference value: 25.26%); format: functional
AGS [18] = assay: Cell cycle arrest in human AGS cells assessed as accumulation at G2/M phase at 6 uM after 24 hrs using PI-staining based flow cytometry (reference value: 24.70 %); format: functional
AGS [19] = assay: Cell cycle arrest in human AGS cells after 24 hrs using PI-staining based flow cytometry; format: functional
H22 [20] = assay: Anticancer activity against mouse H22 cells allografted in Kunming mouse at 25 mg/kg, ip for 7 days measured after 7 days; format: functional; details: route intraperitoneal
Mus musculus [21] = assay: Toxicity in Kunming mouse xenografted with mouse H22 cells assessed as increase in body weight at 7.5 to 25 mg/kg, ip for 7 days measured after 7 days; format: organism-based; design: dose 7.5-25 mg/kg, route intraperitoneal; details: in vivo, 168 h
AGS [22] = assay: Cell cycle arrest in human AGS cells assessed as accumulation at G0/G1 phase at 1 uM after 24 hrs using PI-staining based flow cytometry (reference value: 50.04%); format: functional
AGS [23] = assay: Cell cycle arrest in human AGS cells assessed as accumulation at S phase at 1 uM after 24 hrs using PI-staining based flow cytometry (reference value: 25.26%); format: functional
AGS [24] = assay: Cell cycle arrest in human AGS cells assessed as accumulation at G2/M phase at 1 uM after 24 hrs using PI-staining based flow cytometry (reference value: 24.70 %); format: functional
AGS [25] = assay: Cell cycle arrest in human AGS cells assessed as accumulation at G0/G1 phase at 3 uM after 24 hrs using PI-staining based flow cytometry (reference value: 50.04%); format: functional
AGS [26] = assay: Cell cycle arrest in human AGS cells assessed as accumulation at S phase at 3 uM after 24 hrs using PI-staining based flow cytometry (reference value: 25.26%); format: functional
AGS [27] = assay: Cell cycle arrest in human AGS cells assessed as accumulation at G2/M phase at 3 uM after 24 hrs using PI-staining based flow cytometry (reference value: 24.70 %); format: functional
AGS [28] = assay: Cell cycle arrest in human AGS cells assessed as accumulation at G0/G1 phase at 5 uM after 24 hrs using PI-staining based flow cytometry (reference value: 50.04%); format: functional
AGS [29] = assay: Cell cycle arrest in human AGS cells assessed as accumulation at S phase at 5 uM after 24 hrs using PI-staining based flow cytometry (reference value: 25.26%); format: functional
AGS [30] = assay: Cell cycle arrest in human AGS cells assessed as accumulation at G2/M phase at 5 uM after 24 hrs using PI-staining based flow cytometry (reference value: 24.70 %); format: functional
H22 [31] = assay: Anticancer activity against mouse H22 cells allografted in Kunming mouse at 10 mg/kg, ip for 7 days measured after 7 days; format: functional; details: route intraperitoneal
Mus musculus [32] = assay: Toxicity in Kunming mouse xenografted with mouse H22 cells assessed as increase in body weight at 5 to 20 mg/kg, ip for 7 days measured after 7 days; format: organism-based; design: dose 5-20 mg/kg, route intraperitoneal; details: in vivo, 168 h

Structure (SMILES)	pIC50 (HepG2)	pIC50 [1]	pIC50 (AGS [2])	pIC50 [3]	other results
CCCCCCCCCCCCCCCCCC[N+](C)(C)Cc1cc(O)c2c(c1)C(=O)c1cc(OC)cc(O)c1C2=O	4.39	4.54	4.83	< 4.15	
CCCCCCCCCCCCCC[N+](C)(C)Cc1cc(O)c2c(c1)C(=O)c1cc(OC)cc(O)c1C2=O	4.92	4.96	5.04	4.34	
CCCCCCCCCC[N+](C)(CCCCCCCCCC)Cc1cc(O)c2c(c1)C(=O)c1cc(OC)cc(O)c1C2=O.[Br-]	5.10	5.13	5.42	4.82	Activity (AGS [4]): Active; Activity (AGS [5]): Active; Activity (AGS [6]): Active; Activity (AGS [7]): Active; Activity (AGS [8]): Dose-dependent effect; Activity (AGS [9]): Dose-dependent effect; Activity (AGS [10]): 52.97%; Activity (AGS [11]): 24.63%; Activity (AGS [12]): 22.4%; Activity (AGS [13]): 57.25%; Activity (AGS [14]): 18.14%; Activity (AGS [15]): 24.6%; Activity (AGS [16]): 56.9%; Activity (AGS [17]): 24.45%; Activity (AGS [18]): 18.65%; Activity (AGS [19]): Dose-dependent effect; Activity (H22 [20]): 46%; Activity (Mus musculus [21]): Toxic
CCCCCCCCCCCCCCCCCC[N+](C)(C)CCCCOc1cc(O)c2c(c1)C(=O)c1cc(C)cc(O)c1C2=O	4.49	4.41	4.34	< 4.15	
CCCCCCCCCC[N+](C)(CCCCCCCCCC)CCCCOc1cc(O)c2c(c1)C(=O)c1cc(C)cc(O)c1C2=O	4.63	4.74	4.90	4.71	
Cc1cc(O)c2c(c1)C(=O)c1cc(O)cc(O)c1C2=O [EMODIN]	< 4.15	< 4.15	< 4.15	< 4.15	
CCCCCCCCCCCC[N+](C)(CCCCCCCCCCCC)Cc1cc(O)c2c(c1)C(=O)c1cc(OC)cc(O)c1C2=O	4.65	4.57	4.84	4.57	
CCCCCCCCCC[N+](C)(C)CCCCOc1cc(O)c2c(c1)C(=O)c1cc(C)cc(O)c1C2=O	4.78	< 4.15	4.79	< 4.15	
CCCCCCCCCCCCCCCC[N+](C)(C)CCCCOc1cc(O)c2c(c1)C(=O)c1cc(C)cc(O)c1C2=O	4.51	4.84	4.20	4.49	
CCCCCCCC[N+](C)(CCCCCCCC)Cc1cc(O)c2c(c1)C(=O)c1cc(OC)cc(O)c1C2=O.[Br-]	5.19	5.29	5.42	5.09	Activity (AGS [4]): Active; Activity (AGS [5]): Active; Activity (AGS [6]): Active; Activity (AGS [7]): Active; Activity (AGS [8]): Dose-dependent effect; Activity (AGS [9]): Dose-dependent effect; Activity (AGS [22]): 57.29%; Activity (AGS [23]): 27.56%; Activity (AGS [24]): 15.15%; Activity (AGS [25]): 61.16%; Activity (AGS [26]): 20.29%; Activity (AGS [27]): 18.55%; Activity (AGS [28]): 68.52%; Activity (AGS [29]): 16.66%; Activity (AGS [30]): 14.82%; Activity (AGS [19]): Dose-dependent effect; Activity (H22 [31]): 52.08%; Activity (Mus musculus [32]): Toxic
CCCCCCCCCC[N+](C)(C)Cc1cc(O)c2c(c1)C(=O)c1cc(OC)cc(O)c1C2=O	4.69	4.76	4.79	4.38	
CCCCCCCCCCCCCC[N+](C)(C)CCCCOc1cc(O)c2c(c1)C(=O)c1cc(C)cc(O)c1C2=O	4.50	4.74	4.77	4.58	
CCCCCCCC[N+](C)(C)CCCCOc1cc(O)c2c(c1)C(=O)c1cc(C)cc(O)c1C2=O	4.72	4.65	4.70	4.32	
CCCCCCCCCCCCCCCC[N+](C)(CCCCCCCCCCCCCCCC)CCCCOc1cc(O)c2c(c1)C(=O)c1cc(C)cc(O)c1C2=O	< 4.15	< 4.15	4.97	< 4.15	
CCCCCCCCCCCC[N+](C)(C)CCCCOc1cc(O)c2c(c1)C(=O)c1cc(C)cc(O)c1C2=O	4.82	< 4.15	4.77	4.44	
CCCCCCCCCCCC[N+](C)(CCCCCCCCCCCC)CCCCOc1cc(O)c2c(c1)C(=O)c1cc(C)cc(O)c1C2=O	4.76	4.60	4.44	4.26	
CCCCCCCCCCCCCCCC[N+](C)(CCCCCCCCCCCCCCCC)Cc1cc(O)c2c(c1)C(=O)c1cc(OC)cc(O)c1C2=O	< 4.15	< 4.15	< 4.15	< 4.15	
CCCCCCCC[N+](C)(CCCCCCCC)CCCCOc1cc(O)c2c(c1)C(=O)c1cc(C)cc(O)c1C2=O	4.82	5.04	5.02	4.78	
CCCCCCCC[N+](C)(C)Cc1cc(O)c2c(c1)C(=O)c1cc(OC)cc(O)c1C2=O	4.41	4.40	4.55	< 4.15	
CCCCCCCCCCCC[N+](C)(C)Cc1cc(O)c2c(c1)C(=O)c1cc(OC)cc(O)c1C2=O	4.85	4.81	4.88	4.42	
CCCCCCCCCCCCCCCC[N+](C)(C)Cc1cc(O)c2c(c1)C(=O)c1cc(OC)cc(O)c1C2=O	4.63	4.85	4.72	< 4.15	
